Structures are written as SMILES.

The target of one test is T1, bovine RNase A (Bos taurus, UniProt P61823).
T1 sequence (P61823 27-150): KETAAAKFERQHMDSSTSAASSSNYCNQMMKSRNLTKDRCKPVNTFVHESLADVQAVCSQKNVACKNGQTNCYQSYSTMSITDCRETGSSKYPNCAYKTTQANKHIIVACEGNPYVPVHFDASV
The settings on record: measured under conditions employed here (Harper et al., Biochemistry 27: 219-226); cited from earlier work.

Test [1] addresses T2, human angiogenin variant D116N-angiogenin (Asn-116) (Homo sapiens, UniProt P03950, D140N).
T2 construct: made in house; host or cells: E. coli W3110
Put plainly: Cleavage of dinucleoside phosphates (HPLC method). It is filed as biochemical. The settings on record: 30 mM Mes, pH 6.0, 30 mM NaCl, 0.1 mM dinucleoside phosphate, 37° C. As for the experimental part: Activity toward the RNase substrates cytidyl (3'→5') adenosine (CpA) and uridyl (3'→5') adenosine (UpA) was determined using a sensitive HPLC method described previously (Shapiro et al., Biochemistry 25: 3527-3532 and 7255-7264 1986). Reaction mixture containing 30 mM 2-(N-morpholino) ethane sulfonic acid (Mes), pH 6.0, 30 mM NaCl and 0.1 mM dinucleoside phosphate were incubated with angiogenin (0.7-3.0 μM) at 37° C. Aliquots (15-20 μl) were removed at various times and injected onto an HPLC column (radial Pak C18; Waters Associates) equilibrated with 10 mM potassium phosphate, pH 7.0. Elution of reactants and products was accomplished using a linear gradient of methanol in 100 mM potassium phosphate pH 7.0 at a flow rate of 0.8 ml/minutes. Elution was monitored at 254 nm and the integrated areas of reactants and products used to calculate kcat /Km using the expression kcat /Km =1n {[S] o /[S]t }/[E]t.

T2 sequence (P03950 25-147 D140N): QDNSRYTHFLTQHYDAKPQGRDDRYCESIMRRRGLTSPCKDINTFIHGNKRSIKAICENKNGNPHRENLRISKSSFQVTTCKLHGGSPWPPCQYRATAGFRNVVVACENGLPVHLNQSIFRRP

Take `Nc1ccn([C@@H]2O[C@H](CO)[C@@H](OP(=O)(O)OC[C@H]3O[C@@H](n4cnc5c(N)ncnc54)[C@H](O)[C@@H]3O)[C@H]2O)c(=O)n1` [CpA, cytidyl (3'→5') adenosine]: the “kcat /Km” value on bovine RNase A is 6e+06 M⁻¹ s⁻¹. Turning to `Nc1ncnc2c1ncn2[C@@H]1O[C@H](COP(=O)(O)O[C@H]2[C@@H](O)[C@H](n3ccc(=O)[nH]c3=O)O[C@@H]2CO)[C@@H](O)[C@H]1O` [UpA, uridyl (3'→5') adenosine], the “kcat /Km” value on bovine RNase A is 4e+06 M⁻¹ s⁻¹; in test [1], 0.5 M^-1 s^-l.
